Assay results: patent US20260007680A1, “Compounds and Their Use as PDE4 Activators” (Mironid Limited, priority 2022, published 2026)

Legend:
PDE4B2 = target: T1, PDE4B2 (Homo sapiens, UniProt Q07343); assay: PDE assay, PDE4B2 short form (Experiment 1); format: biochemical; details: 100 μM test compound; mean % increase in counts over basal activity
T1 construct: the full length human PDE4B2 short isoform; made in house; cytosol fraction of cell lysate, prepared as described for PDE4D5
Protocol: (§1) One suitable method of detecting whether or not a compound is capable of serving as an activator of a PDE4 long form is using a two-step radio-assay procedure described in Experiment 1. In summary, the method involves incubating a PDE4 long form with a test small molecule activator, together with [^3H]-labelled cAMP to assess alterations in the breakdown of cAMP to the 5′-adenosine monophosphate (5′-AMP) product. A sample of the reaction mixture from such an incubation is subsequently treated with snake venom 5′-nucleotidase to allow conversion of the nucleotide [^3H]-labelled 5′-AMP to the uncharged nucleoside [^3H]-labelled adenosine, which can be separated and quantified to assess PDE4 activity and the effect of the test compound (Thompson, W. J. and Appleman, M. M. Biochemistry 10: 311-316, 1971, with some modifications as described in: Marchmont, R. J. and Houslay, M. D. Biochem J. 187: 381-92, 1980).
(§2) Experiment 1: Measurement of Modulation of Enzyme Activity by PDE4 Long Form Activators of the Present Invention Using Full-Length Human PDE4 Isoforms; Long Forms PDE4D5, PDE4C3, PDE4B1 and Short Form PDE4B2 • (Marchmont, R. J. and Houslay, M. D. Biochem. J. 187: 381-92, 1980)
(§3) Where stable cell lines were generated the clonal isolates were expanded to obtain cell lines that stably expressed the full-length human PDE4 long isoforms and the full length human PDE4B2 short isoform. These were called the HEK-PDE4D5, HEK-PDE4B1 and HEK-PDE4B2 cell lines, respectively.
(§4) PDE assays were performed in thin walled V-bottomed 96-well plates. The assays were performed at a final concentration of 10 mM Tris/5 mM MgCl2 plus PDE4D5 cell lysate cytosol fraction, containing over-expressed PDE4D5, with and without test compound. The lysate/compound mix were incubated together for 15 min at room temperature on an orbital shaker prior to addition of [^3H] cAMP (final concentration 1 μM [^3H] cAMP; Perkin Elmer) to a final volume of 50 μL per reaction. The reactions were then incubated for 10 minutes at 30° C., terminated by heating for 2 min at 95° C. and allowed to cool. Snake venom (12.5 μL of 1 mg/mL; Crotalus atrox, Sigma) was then added and the plates were agitated and incubated for a further 15 minutes at 30° C. Dowex ion exchange resin (Sigma, chloride form, 200-400 mesh; 200 μL; prepared as a 1:1 Dowex:water stock, thoroughly re-suspended and diluted 2:1 with ethanol) was then added to each well and the plates incubated for 15 min at room temperature on an orbital shaker ensuring sufficient agitation for resin suspension (550 RPM). The reaction mixture was then transferred to a 96 well filter plate (Millipore; 0.45 μm pore size) and filtered into a receiving 96-well plate to remove the dowex suspension. 30 μL of the filtered solution was then transferred to the wells of an Opti-plate (Perkin Elmer) 96 well assay plate and 120 μL of Microscint 40 scintillation fluid was added. The plate was then placed on an orbital shaker for 10 min at high speed (900 rpm) to mix the sample with scintillation fluid prior to quantitation using a plate based scintillation counter (Top-Count).
The % increase in counts in the presence of test compound at a particular concentration indicates the % increase in enzyme activity at that concentration.

PDE4D5 = target: T2, PDE4D5 (Homo sapiens, UniProt Q08499); assay: PDE assay, activation of PDE4D5 long form (Experiment 1); format: biochemical; details: 100 μM test compound; mean % increase in counts over basal activity
T2 construct: Using Full-Length Human PDE4 Isoforms; Long Forms PDE4D5, PDE4C3, PDE4B1 and Short Form PDE4B2; made in house; cytosol fraction of cell lysate
Protocol: as §1, §2
For transient transfection of exogenous PDE4 long isoforms, HEK 293 cells were transfected with pcDNA3.1 or pDEST^TM PDE4 expression vectors using Lipofectamine LTX/Plus reagent (Invitrogen) as outlined by the manufacturer.
as §3
HEK-PDE4D5 cells were seeded out in 100 mm plates and incubated at 37° C. in an atmosphere of 5% CO2, 95% air. Cell lysates were prepared using KHEM buffer [50 mM KCl, 10 mM EGTA, 50 mM HEPES (pH 7.2), 1.92 mM MgCl2].
To prepare the cell lysates, the 100 mm plates containing the cells were placed on ice and washed with ice-cold PBS (phosphate buffered saline, pH 7.4). KHEM buffer (500 μL) was added to the cells. Cells were then scraped off the plate and triturated using a needle (BD Microlance™ 0.8, 40 mm). The lysed cells were then centrifuged at 2000 rpm for 10 minutes to remove cell debris and the supernatant (cell lysate containing recombinant PDE4D5) was transferred to a fresh tube and kept on ice.
The cell lysate containing recombinant PDE4D5 was transferred into a centrifuge tube and placed into an ultracentrifuge (BECKMAN COULTER) and spun at high speed (100,000 g) for 30 minutes at 4° C. The cytosol fraction was then collected and its protein amount determined using a BCA protein assay.
as §4, with “30 μL of the filtered solution was then transferred to the wells of an Opti-plate (Perkin Elmer) 96 well assay plate and 120 μL of Microscint 40 scintillation fluid was added. The plate was then placed on an orbital shaker for 10 min at high speed (900 rpm) to mix the sample with scintillation fluid prior to quantitation using a plate based scintillation counter (Top-Count).” left out

T1 sequence (Q07343 1-564 isoform Q07343-2): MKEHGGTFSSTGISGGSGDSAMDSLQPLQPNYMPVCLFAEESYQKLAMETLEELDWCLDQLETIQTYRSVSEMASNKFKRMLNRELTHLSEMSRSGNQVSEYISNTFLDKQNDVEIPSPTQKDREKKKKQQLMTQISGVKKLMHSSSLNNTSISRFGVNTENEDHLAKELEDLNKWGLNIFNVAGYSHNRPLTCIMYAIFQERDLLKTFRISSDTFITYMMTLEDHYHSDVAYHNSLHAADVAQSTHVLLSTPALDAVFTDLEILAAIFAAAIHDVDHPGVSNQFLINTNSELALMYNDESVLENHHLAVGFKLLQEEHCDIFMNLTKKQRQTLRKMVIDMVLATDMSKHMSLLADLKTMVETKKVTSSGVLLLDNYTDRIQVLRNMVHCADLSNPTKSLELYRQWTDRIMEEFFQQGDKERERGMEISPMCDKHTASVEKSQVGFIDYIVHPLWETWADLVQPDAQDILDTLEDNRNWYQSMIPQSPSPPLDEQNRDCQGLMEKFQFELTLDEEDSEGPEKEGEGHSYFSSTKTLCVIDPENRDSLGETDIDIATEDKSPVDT
T2 sequence (Q08499 1-745 isoform Q08499-6): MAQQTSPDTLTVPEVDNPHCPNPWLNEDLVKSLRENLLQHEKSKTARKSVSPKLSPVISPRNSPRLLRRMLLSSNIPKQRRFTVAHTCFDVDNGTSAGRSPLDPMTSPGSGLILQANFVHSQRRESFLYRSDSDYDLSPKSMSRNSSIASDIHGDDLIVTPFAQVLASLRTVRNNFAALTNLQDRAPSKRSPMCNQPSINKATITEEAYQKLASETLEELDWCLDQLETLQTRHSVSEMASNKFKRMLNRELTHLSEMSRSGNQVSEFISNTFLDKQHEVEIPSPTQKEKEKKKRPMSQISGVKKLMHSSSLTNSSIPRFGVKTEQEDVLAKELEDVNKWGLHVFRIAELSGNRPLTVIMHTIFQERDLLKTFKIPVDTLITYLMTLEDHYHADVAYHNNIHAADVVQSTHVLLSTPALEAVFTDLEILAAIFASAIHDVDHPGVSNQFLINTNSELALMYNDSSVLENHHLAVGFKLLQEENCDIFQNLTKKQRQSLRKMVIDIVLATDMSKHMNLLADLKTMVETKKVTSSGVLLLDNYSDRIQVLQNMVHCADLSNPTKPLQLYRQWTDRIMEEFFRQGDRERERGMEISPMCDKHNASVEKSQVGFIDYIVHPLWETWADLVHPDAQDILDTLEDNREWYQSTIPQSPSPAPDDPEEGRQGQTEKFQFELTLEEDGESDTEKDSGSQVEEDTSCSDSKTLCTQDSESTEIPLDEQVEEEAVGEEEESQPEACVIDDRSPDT

Row | activation at 100 µM (PDE4B2) | activation at 100 µM (PDE4D5) | SMILES
1 | -35% | 46% | O=C(N[C@H]1CCc2ccccc21)c1ccc2[nH]c(-c3cccnc3)nc2c1 [Example 10, (S)—N-(2,3-dihydro-1H-inden-1-yl)-2-(pyridin-3-yl)-1H-benzo[d]imidazole-5-carboxamide]
2 | 0% | 176% | O=C(N[C@H]1CCOc2ccccc21)c1ccc2nc(-c3cccnc3)nn2c1 [Example 34, (S)—N-(chroman-4-yl)-2-(pyridin-3-yl)-[1,2,4]triazolo[1,5-a]pyridine-6-carboxamide]
3 | -11% | 68% | Cc1ccc(-c2nc3ccc(C(=O)N[C@H]4CCOc5ccccc54)cn3n2)cn1 [Example 35, (S)—N-(chroman-4-yl)-2-(6-methylpyridin-3-yl)-[1,2,4]triazolo[1,5-a]pyridine-6-carboxamide]
4 | -24% | 127% | Cc1ccncc1-c1nc2ccc(C(=O)N[C@H]3CCOc4ccccc43)cn2n1 [Example 37, (S)—N-(chroman-4-yl)-2-(4-methylpyridin-3-yl)-[1,2,4]triazolo[1,5-a]pyridine-6-carboxamide]
5 | -28% | 63% | Cc1ccc(-c2nc3ccc(C(=O)N[C@H]4CCOc5ccccc54)cn3n2)c(C)n1 [Example 39, (S)—N-(chroman-4-yl)-2-(2,6-dimethylpyridin-3-yl)-[1,2,4]triazolo[1,5-a]pyridine-6-carboxamide]
6 | -8% | 99% | O=C(N[C@H]1CCOc2ccccc21)c1cnc2cc(-c3cccnc3)nn2c1 [Example 90, (S)—N-(chroman-4-yl)-2-(pyridin-3-yl)pyrazolo[1,5-a]pyrimidine-6-carboxamide]

Second part, the molecule before the results:

Row | SMILES | activation at 100 µM (PDE4B2) | activation at 100 µM (PDE4D5)
7 | O=C(N[C@H]1CCOc2ccccc21)c1ccc2[nH]c(-c3cccnc3)nc2c1 [Example 8, (S)—N-(chroman-4-yl)-2-(pyridin-3-yl)-1H-benzo[d]imidazole-5-carboxamide] | -35% | 52%
8 | O=C(N[C@@H]1CCOc2ccc(Cl)cc21)c1ccc2[nH]c(-c3cccnc3)nc2c1 [Example 11, (R)—N-(6-chlorochroman-4-yl)-2-(pyridin-3-yl)-1H-benzo[d]imidazole-5-carboxamide] | – | 35%
9 | CN1CCC(c2nc3cc(C(=O)N[C@H]4CCCc5ccccc54)ccc3[nH]2)CC1 [Example 15, (S)-2-(1-methylpiperidin-4-yl)-N-(1,2,3,4-tetrahvdronaphthalen-1-yl)-1H-benzo[d]imidazole-5-carboxamide] | 3% | 123%
10 | Cc1cncc(-c2nc3ccc(C(=O)N[C@H]4CCOc5ccccc54)cn3n2)c1 [Example 36, (S)—N-(chroman-4-yl)-2-(5-methylpyridin-3-yl)-[1,2,4]triazolo[1,5-a]pyridine-6-carboxamide] | 6% | 57%
